As usually defined, the melting point is the temperature of the solid-liquid transition.

Turning to `CN1CCCC1C(c1ccc2cc(OCc3ccccc3)ccc2c1)n1ccnc1` (single isomer, unassigned) [Example 3-30b, 1-[(6-Benzyloxy-naphthalen-2-yl)-(1-methyl-pyrrolidin-2-yl)-methyl]-1H-imidazole], the melting point is 110 to 112 °C. The result for `CN1CCCC1C(c1ccc2cc(OCc3ccccc3)ccc2c1)n1ccnc1` (single isomer, unassigned) [Example 3-30a, 1-[(6-Benzyloxy-naphthalen-2-yl)-(1-methyl-pyrrolidin-2-yl)-methyl]-1H-imidazole] reads 124 to 126 °C.

(Values after US7662844B2, “Naphthylene derivatives as cytochrome P450 inhibitors” (OSI Pharmaceuticals, Inc., priority 2004, dated 2010).)
